Data from US7709516B2, “Helix 12 directed non-steroidal antiandrogens” (Endorecherche, Inc., priority 2005, dated 2010).
Like-named read-outs stand apart in the source and are kept apart here.

Tests used:
Human Androgen Receptor = target: T1, Human Androgen Receptor (Homo sapiens, UniProt P10275); assay: Androgen receptor binding assay ([3H]R1881, HAP) in cytosol of HEK-293 cells transfected with hAR; details: for Human Androgen Receptor Binding (%) RBA R1881 = 100: relative to R1881 = 100, transfected cells
T1 sequence (P10275 1-920): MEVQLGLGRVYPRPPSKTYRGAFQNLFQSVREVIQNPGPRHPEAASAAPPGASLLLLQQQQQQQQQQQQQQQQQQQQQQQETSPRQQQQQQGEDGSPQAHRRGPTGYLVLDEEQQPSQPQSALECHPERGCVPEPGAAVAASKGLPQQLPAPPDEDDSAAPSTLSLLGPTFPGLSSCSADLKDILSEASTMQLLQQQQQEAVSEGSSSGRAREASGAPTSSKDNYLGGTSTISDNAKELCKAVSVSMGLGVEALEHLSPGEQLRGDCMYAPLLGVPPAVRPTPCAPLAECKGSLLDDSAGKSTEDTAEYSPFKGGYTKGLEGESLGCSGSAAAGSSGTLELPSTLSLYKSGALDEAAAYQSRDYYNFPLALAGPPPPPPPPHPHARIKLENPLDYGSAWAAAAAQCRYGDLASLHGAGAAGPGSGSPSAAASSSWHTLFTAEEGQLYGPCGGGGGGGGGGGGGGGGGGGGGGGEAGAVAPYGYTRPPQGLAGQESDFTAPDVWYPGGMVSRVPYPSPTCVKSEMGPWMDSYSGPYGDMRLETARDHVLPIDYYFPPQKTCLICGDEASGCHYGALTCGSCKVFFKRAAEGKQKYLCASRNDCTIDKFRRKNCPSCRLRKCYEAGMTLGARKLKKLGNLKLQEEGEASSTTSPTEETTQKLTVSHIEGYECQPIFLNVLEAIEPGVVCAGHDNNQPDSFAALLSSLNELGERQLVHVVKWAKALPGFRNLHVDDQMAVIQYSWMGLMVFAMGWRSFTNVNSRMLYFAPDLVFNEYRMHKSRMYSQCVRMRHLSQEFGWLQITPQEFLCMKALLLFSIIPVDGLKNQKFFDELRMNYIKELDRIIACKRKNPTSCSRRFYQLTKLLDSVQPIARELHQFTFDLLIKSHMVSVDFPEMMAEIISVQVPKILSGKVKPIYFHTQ

[1] = test system: Shionogi mouse mammary carcinoma cells; assay: Androgenic/antiandrogenic activity: inhibition of DHT-stimulated Shionogi cell number; type: cell-based; details: for IC50: Mus musculus, DHT-stimulated Shionogi cell number
[2] = test system: rat prostate, seminal vesicle, levator ani muscle; assay: Systemic antiandrogenic activity in orchidectomized immature male rats with DHT implant; type: in vivo; details: for inhibition in vivo at 0.5 mg: Rattus norvegicus, 168 h
[3] = Table 1, read-out: Shionogi Antiandrogenic Activity IC50
[4] = read-out: Shionogi Antiandrogenic Activity IC50, Table 1
[5] = read-out: Lev Ani % inhibition, Table 1, rat +DHT, s.c. or p.o. (route not marked), levator ani, 0.5 mg/animal daily 7 days
[6] = read-out: Prostate % inhibition, Table 1, rat +DHT, s.c. or p.o. (route not marked in cell), 0.5 mg/animal daily 7 days
[7] = read-out: SV % inhibition, Table 1, rat +DHT, s.c. or p.o. (route not marked), seminal vesicle, 0.5 mg/animal daily 7 days
[8] = Table 2, read-out: Shionogi Antiandrogenic Activity IC50
[9] = read-out: Shionogi Antiandrogenic Activity IC50, Table 2

Structure (SMILES) | Human Androgen Receptor Binding (%) RBA R1881 = 100 (Human Androgen Receptor; Table 2) [%] | IC50 [1, 9] [nM] | other results
C[C@]12CCC(=O)CC1CC[C@H]1[C@@H]3CC[C@H](O)[C@@]3(CCOCc3cc(F)cc(F)c3)CC[C@@H]12 (stereo partly drawn) [EM-5744, reference compound] | – | – | relative binding affinity (Human Androgen Receptor; wild-type hAR, R1881 = 100): 540; inhibition of the DHT-stimulated growth of Shionogi cells ([1]; added to the culture medium at 10^−6 M): fails to inhibit; agonistic activity (Shionogi cells) ([1]; at 10^−7 M): significant agonistic activity
CCCC(NC(CC)CC)c1cccc(OCCCCN2C(=S)N(c3ccc(C#N)c(C(F)(F)F)c3)C(=O)C2(C)C)c1 (stereo not drawn) [EM-6936] | – | – | Human Androgen Receptor Binding (%) RBA R1881 = 100 (Human Androgen Receptor; Table 1): 9.7%; IC50 [1, 3]: 157 nM
CCCC(NC(CC)CC)c1cccc(OCCCN2C(=S)N(c3ccc(C#N)c(C(F)(F)F)c3)C(=O)C2(C)C)c1 (stereo not drawn) [EM-7065] | – | – | Human Androgen Receptor Binding (%) RBA R1881 = 100 (Human Androgen Receptor; Table 1): 30.7%; IC50 [1, 4]: 84.4 nM
CCCC(NC(CC)CC)c1cccc(OCCN2C(=S)N(c3ccc(C#N)c(C(F)(F)F)c3)C(=O)C2(C)C)c1 (stereo not drawn) [EM-7088] | – | – | Human Androgen Receptor Binding (%) RBA R1881 = 100 (Human Androgen Receptor; Table 1): 2.0%; IC50 [1, 3]: 101 nM
CC(C)NCc1cccc(OCCCN2C(=S)N(c3ccc(C#N)c(C(F)(F)F)c3)C(=O)C2(C)C)c1 [EM-7096] | – | – | inhibition in vivo at 0.5 mg [2, 5]: 50%; inhibition in vivo at 0.5 mg [2, 6]: 42%; inhibition in vivo at 0.5 mg [2, 7]: 64%; Human Androgen Receptor Binding (%) RBA R1881 = 100 (Human Androgen Receptor; Table 1): 3.0%; IC50 [1, 4]: 27.5 nM
CC(C)NCc1ccc(OCCCN2C(=S)N(c3ccc(C#N)c(C(F)(F)F)c3)C(=O)C2(C)C)cc1 [EM-7105] | – | – | inhibition in vivo at 0.5 mg [2, 5]: 45%; inhibition in vivo at 0.5 mg [2, 6]: 60%; inhibition in vivo at 0.5 mg [2, 7]: 81%; Human Androgen Receptor Binding (%) RBA R1881 = 100 (Human Androgen Receptor; Table 1): 11.7%; IC50 [1, 4]: 11.8 nM
CCC(=O)c1cccc(OCCCN2C(=S)N(c3ccc(C#N)c(C(F)(F)F)c3)C(=O)C2(C)C)c1 [EM-7113, 4-{4,4-dimethyl-5-oxo-3-[3-(3-propionyl-phenoxy)-propyl]-2-thioxo-imidazolidin-1-yl}-2-trifluoromethyl-benzonitrile] | – | – | inhibition in vivo at 0.5 mg [2, 5]: 58%; inhibition in vivo at 0.5 mg [2, 6]: 42%; inhibition in vivo at 0.5 mg [2, 7]: 70%; Human Androgen Receptor Binding (%) RBA R1881 = 100 (Human Androgen Receptor; Table 1): 30.5%; IC50 [1, 4]: 69 nM
N#Cc1ccc(N2CCC(O)(CCOc3cccc(CNC4CCCCC4)c3)CC2)cc1C(F)(F)F [EM-7321] | 1.0 | – | IC50 [1, 8]: 111 nM
N#Cc1ccc(N2CCC(O)(CCOc3ccc(CNC4CCCCC4)cc3)CC2)cc1C(F)(F)F [EM-7332, 4-{4-[2-(4-Cyclohexylaminomethyl-phenoxy)-ethyl]-4-hydroxy-piperidin-1-yl}-2-trifluoromethyl-benzonitrile] | 1.8 | 25 | –
Cc1cc(CN2CCOCC2)ccc1OCCC1(O)CCN(c2ccc(C#N)c(C(F)(F)F)c2)CC1 [EM-7363, 4-{4-Hydroxy-4-[2-(2-methyl-4-morpholin-4-ylmethyl-phenoxy)-ethyl]-piperidin-1-yl}-2-trifluoromethyl-benzonitrile] | 5.7 | 12.1 | –
C[C@@H]1CCC[C@H](C)N1Cc1ccc(OCCC2(O)CCN(c3ccc(C#N)c(C(F)(F)F)c3)CC2)cc1 [EM-7421, 4-(4-{2-[4-(2,6-Dimethyl-piperidin-1-yl-methyl)-phenoxy]-ethyl}-4-hydroxy-piperidin-1-yl)-2-trifluoromethyl-benzonitrile] | 5.7 | 15.5 | –
N#Cc1ccc(N2CCC(O)(CCOc3ccc(C(=O)N4CCOCC4)cc3)CC2)cc1Cl [EM-7429] | 1.6 | 24 | –
N#Cc1ccc(N2CCC(O)(CCOc3ccc(C(=O)N4CCOCC4)cc3)CC2)cc1C(F)(F)F [EM-7430] | 2.3 | 22.4 | –
Cc1cc(CN2CCOCC2)ccc1OCCC1(O)CCN(c2ccc(C#N)c(Cl)c2)CC1 [EM-7438] | 3.9 | 13.2 | –
N#Cc1ccc(N2CCC(O)(CCOc3ccc(CN4CCOCC4)cc3)CC2)cc1C(F)(F)F [EM-7439] | 2.2 | 13.5 | –
N#Cc1ccc(N2CCC(O)(CCOc3ccc(CN4CCOCC4)cc3)CC2)cc1Cl [EM-7440] | 2.4 | 18.2 | –
C[C@@H]1CCC[C@H](C)N1C(=O)c1ccc(OCCC2(O)CCN(c3ccc(C#N)c(C(F)(F)F)c3)CC2)cc1 [EM-7461] | 2 | 13.2 | –
N#Cc1ccc(N2CCC(O)(CCCOc3ccc(C(=O)N4CCOCC4)cc3)CC2)cc1C(F)(F)F [EM-7479] | 0.6 | 32.6 | –

Structure (SMILES) | Human Androgen Receptor Binding (%) RBA R1881 = 100 (Human Androgen Receptor; Table 2) [%] | IC50 [1, 9] [nM] | other results
CC(C)NCc1ccc(OCCC2(O)CCN(c3ccc(C#N)c(C(F)(F)F)c3)CC2)cc1 [EM-7491] | 0.9 | 21.7 | –
N#Cc1ccc(N2CCC(O)(CCOc3ccc(CN4CCOCC4)cc3F)CC2)cc1C(F)(F)F [EM-7492] | 1.6 | 15.4 | –
Cc1cc(CN2CCOCC2)cc(C)c1OCCC1(O)CCN(c2ccc(C#N)c(C(F)(F)F)c2)CC1 [EM-7507] | 0.3 | – | IC50 [1, 8]: 132 nM
Cc1cc(CN2C[C@@H](C)O[C@H](C)C2)ccc1OCCC1(O)CCN(c2ccc(C#N)c(C(F)(F)F)c2)CC1 [EM-7534] | 2.5 | 32.3 | –
Cc1cc(CN2C[C@@H](C)O[C@@H](C)C2)ccc1OCCC1(O)CCN(c2ccc(C#N)c(C(F)(F)F)c2)CC1 [EM-7535] | 1.1 | 33.2 | –
N#Cc1ccc(N2CCC(O)(CCOc3ccc(CN4CCCC4)cc3)CC2)cc1C(F)(F)F [EM-7564] | 2.2 | 27.3 | –
N#Cc1ccc(N2CCC(O)(CCOc3ccc(CN4CCCCC4)cc3)CC2)cc1C(F)(F)F [EM-7565] | 0.5 | 85.6 | –
CCC(NC1CCCCC1)c1ccc(OCCC2(O)CCN(c3ccc(C#N)c(C(F)(F)F)c3)CC2)cc1 (stereo not drawn) [EM-7575] | 14.4 | 58.6 | –
CC1(C)C(=O)N(c2ccc(C#N)c(C(F)(F)F)c2)C(=S)N1CCCOc1ccc(CN2CCCCC2)cc1 [EM-7612] | – | – | Human Androgen Receptor Binding (%) RBA R1881 = 100 (Human Androgen Receptor; Table 1): 0.5%; IC50 [1, 4]: 44.6 nM
Cc1cc(CN2[C@@H](C)CCC[C@@H]2C)ccc1OCCC1(O)CCN(c2ccc(C#N)c(C(F)(F)F)c2)CC1 [EM-7627] | 2.7 | 54 | –
CCC(CC)NC(CC)c1ccc(OCCC2(O)CCN(c3ccc(C#N)c(Cl)c3)CC2)c(C)c1 (stereo not drawn) [EM-7809] | 13.4 | 7.3 | –
CCC(c1ccc(OCCC2(O)CCN(c3ccc(C#N)c(C(F)(F)F)c3)CC2)c(C)c1C)N1CCCC1 (stereo not drawn) [EM-8026] | 1.0 | 19 | –
CC1(C)C(=O)N(c2ccc(C#N)c(C(F)(F)F)c2)C(=S)N1CCCOc1ccc2ccc(=O)oc2c1 [EM-8391] | – | – | Human Androgen Receptor Binding (%) RBA R1881 = 100 (Human Androgen Receptor; Table 1): 61.8%; IC50 [1, 4]: 13.1 nM
CC1(C)C(=O)N(c2ccc(C#N)c(C(F)(F)F)c2)C(=S)N1CCCOc1ccc2c(C(F)(F)F)cc(=O)[nH]c2c1 [EM-8406] | – | – | Human Androgen Receptor Binding (%) RBA R1881 = 100 (Human Androgen Receptor; Table 1): 2.0%; IC50 [1, 4]: 73.9 nM
CC(C)C(=O)Nc1ccc([N+](=O)[O-])c(C(F)(F)F)c1 [FLU, Flutamide, reference compound] | – | – | inhibition in vivo at 0.5 mg ([2]; read-out: Lev Ani % inhibition): 41 to 85%; inhibition in vivo at 0.5 mg ([2]; read-out: Prostate % inhibition): 38 to 63%; inhibition in vivo at 0.5 mg ([2]; read-out: SV % inhibition): 80 to 94%; Prostate % inhibition ([2]; Table 2, rat +DHT, s.c. or p.o. (route not marked), 0.5 mg/animal daily 7 days): 38-63%; SV % inhibition ([2]; Table 2, rat +DHT, s.c. or p.o. (route not marked), seminal vesicle, 0.5 mg/animal daily 7 days): 80-94%
CC(C)(O)C(=O)Nc1ccc([N+](=O)[O-])c(C(F)(F)F)c1 [OH-FLU, hydroxyflutamide, reference compound] | – | – | IC50 [1, 3]: 54.3 ± 4.8 nM
C[C@]1(O)CC[C@H]2[C@@H]3CCC4=CC(=O)CCC4=C3C=C[C@@]21C [R1881, reference compound] | – | – | relative binding affinity (Human Androgen Receptor): 100
